The values that follow come from US20050027003A1, “Methods of therapeutic treatment using retinoids with reduced side effects” (Allergan, Inc., priority 2003, published 2005).

Data set [1] relates to patients with severe nodulocystic acne. The experiment in a line: Example 10: placebo-controlled parallel-group study of oral tazarotene in severe nodulocystic acne. It counts as in vivo, human. Conditions: for patients withdrawing due to adverse events: placebo 0%. From the text: A multicenter, double-blind, randomized, placebo-controlled parallel-group study is undertaken to determine the efficacy of orally administered tazarotene in treating severe nodulocystic acne.
In addition, washout periods for other medications for this study are: 1 week for vitamin A supplements >5000 IU; 2 weeks for topical anti-acne medications (e.g., retinoids, azelaic acid, benzoyl peroxide); 2 weeks for topical or systemic antibiotic therapy that may alter the course of acne; and 6 months for systemic retinoids.
Patients are randomized to receive placebo or oral tazarotene (0.75, 1.5, 3, or 6 mg), in a 1:1:1:1:1 ratio once daily for 24 weeks. After this, the patients are followed without treatment for an additional 12 weeks. Patients discontinuing from the treatment period due to adverse effects or lack of efficacy are eligible for entry into the post-treatment phase.
In the study, overall acne severity is rated as: none (no inflammatory acne lesions); mild (few to several papules or pustules, no nodulocystic lesions); moderate (several to many papules or pustules, few to several nodulocystic lesions); and severe (numerous or extensive papules or pustules, many, for example, at least about 5 or at least about 10, nodulocystic lesions).
Treatment success is defined as at least moderate (about 50%) improvement on the following 7-point global response scale: • 0=completely cleared • 1=almost cleared (about 90% improvement) • 2=marked response (about 75% improvement) • 3=moderate response (about 50% improvement) • 4=slight response (about 25% improvement) • 5=condition unchanged • 6=condition worsened
In this study, facial nodulocystic lesion count includes lesions greater than 5 mm in size. Facial papular/pustular lesion count includes lesions less than or equal to 5 mm in size. Facial non-inflammatory lesion count includes open and closed comedones.
Sebum output is assessed every 4 weeks at selected centers using the Sebutape® patches, sold by Cuderm Corporation. Urinalysis, chemistry, and hematology values are monitored. Bone formation and resorption assessments (serum bone alkaline phosphatase and serum amino terminal telopeptides, respectively) at selected centers are monitored.
Bone mineral density of spine and proximal femur at selected centers is monitored. Ligament calcification or osteophyte formation (lateral X-ray of the cervical and thoracic spine, and ankle calcaneous) is monitored. Epiphyseal growth plate closure (internal oblique X-ray of the ankle in patients less than or equal to 21 years old) is monitored.

In a further data set the test system is AP1. The experiment in a line: AP1 antagonism.
The subject of data set [2] is patients having nodulocystic acne. The experiment in a line: Example 5: two placebo-controlled dose-ranging safety studies in nodulocystic acne. It counts as in vivo, human. Conditions: for depression, patients: placebo 2%; for emotional lability, patients: placebo 4%. The procedure: Two placebo-controlled dose-ranging studies are conducted to evaluate the safety of oral tazarotene in patients having nodulocystic acne. In the first study, patients receive orally administered tazarotene at daily doses of 0.4 mg to 2.8 mg in 96 (71+25) patients (12 weeks treatment plus 12 weeks post-treatment). In the second study, daily doses of 0.75 mg to 6 mg tazarotene are administered to 181 patients (24 weeks treatment plus 12 weeks post-treatment).

Setting [3] is: 0.75 to 6 mg once daily, 24 weeks.

SMILES strings stand for the structures.

For `CCOC(=O)c1ccc(C#Cc2ccc3c(c2)C(C)(C)CCS3)nc1` [tazarotene], the “patients withdrawing due to adverse events” value in data set [1] (0.75 mg group (2/35)) is 6%; in data set [1] (1.5 mg group (0/37)) it was 0%; in data set [1] (3 mg group (2/37)), 5%; in data set [1] (6 mg group (1/36)) it was 3%. Moreover, the “incidence of treatment success (≧50% global improvement) vs placebo” value in data set [1] (3 mg and 6 mg, week 24 and throughout post-treatment phase, p≦0.05) is on record as “significantly higher incidence”. Further, the “percentage of patients with at least a 90% reduction in facial nodulocystic lesion count vs placebo” value in data set [1] (6 mg group, end of the post-treatment phase) was “significant superiority over placebo”. In addition, the “reduction of overall acne severity” value in data set [1] (6 mg, week 16 until end of post-treatment phase, p≦0.01) is recorded as “significantly more than placebo”. For the same molecule, the “bone formation and resorption (serum bone alkaline phosphatase, serum amino terminal telopeptides)” value in data set [1] (setting [3]) is recorded as “do not appear to be altered”. Also, the “changes in urinalysis, chemistry, or hematology measures (incl. liver function tests, triglycerides, total cholesterol, HDL cholesterol)” value in data set [1] (setting [3]) was “None of the treatment groups show any consistent clinically significant changes”; in data set [2] (0.4 mg to 6 mg daily), “no consistent dose-related clinically significant changes”. Also, the “reductions in number of facial papules or pustules and facial non-inflammatory acne lesions vs placebo” value in data set [1] (from week 8 onward) is reported as “consistently greater reductions”. In data set [1] (from week 8 onward), the “reductions in number of total facial nodulocystic lesions vs placebo” value is “consistently greater reductions”. Also, in data set [1] (once-daily doses of 1.5, 3, and 6 mg), the “efficacy in severe nodulocystic acne” value was “efficacious”. Besides, in the data set with AP1, the AP1 antagonism entry is “potent”. Also, in data set [2] (0.4 mg to 6 mg daily), the “ligament calcification, osteophyte formation, changes in serum bone alkaline phosphatase, serum amino terminal telopeptides, bone density” value is listed as “not associated with any clinically significant”. The “depression, patients” value in data set [2] (3 mg group (2 mild, 1 severe)) was 8%; in data set [2] (6 mg group) it was “none”. Further, the “emotional lability, patients” value in data set [2] (3 mg group) stood at 3%; in data set [2] (6 mg group), 14%. Also, the “dry skin, severe” value in data set [2] (all groups) is “No patient”.
